Where “and” joins values, the source holds several entries; their conditions need not be identical. Identical values can stand only once. Inconclusive results and toxic doses are left out.
Test system: BDF1 mice, P388 leukemia ip, median survival T/C
Experiment: NCI In Vivo Anticancer Drug Screen. Data for tumor model P388 Leukemia (intraperitoneal) in B6D2F1 (BDF1) mice
Details: endpoint: median survival time, higher = longer survival
Method in brief: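 Compound-treated tumour-bearing mice were compared with vehicle-treated controls. Survival was recorded, and the value is the treated-group measurement divided by the control-group measurement (T/C).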

Structure (SMILES): COc1cc(NS(C)(=O)=O)ccc1Nc1c2ccccc2nc2ccccc12
- T/C (dose: 0.25 mg/kg/injection, schedule: Q01DX009 (ip), vehicle: other): 154 % of control
- T/C (dose: 0.25 mg/kg/injection, schedule: Q01DX009 (ip), vehicle: saline): 150 % of control
- T/C (dose: 0.5 mg/kg/injection, schedule: Q01DX009 (ip), vehicle: other): 161 % of control and 175 % of control
- T/C (dose: 0.57 mg/kg/injection, schedule: Q01DX009 (ip), vehicle: Klucel (hydroxypropylcellulose) (HPC)): 210 % of control
- T/C (dose: 0.8 mg/kg/injection, schedule: Q01DX005 (ip), vehicle: other): 182 % of control
- T/C (dose: 0.8 mg/kg/injection, schedule: Q01DX005 (iv), vehicle: other): 104 % of control and 109 % of control
- T/C (dose: 0.8 mg/kg/injection, schedule: Q04DX003 (iv), vehicle: other): 108 % of control
- T/C (dose: 0.85 mg/kg/injection, schedule: Q01DX009 (ip), vehicle: Klucel (hydroxypropylcellulose) (HPC)): 195 % of control
- T/C (dose: 1.0 mg/kg/injection, schedule: Q01DX009 (ip), vehicle: other): 175 % of control and 195 % of control
- T/C (dose: 1.3 mg/kg/injection, schedule: Q01DX009 (ip), vehicle: Klucel (hydroxypropylcellulose) (HPC)): 173 % of control
- T/C (dose: 1.56 mg/kg/injection, schedule: Q01DX009 (ip), vehicle: Klucel (hydroxypropylcellulose) (HPC)): 166 % of control
- T/C (dose: 1.6 mg/kg/injection, schedule: Q01DX005 (ip), vehicle: other): 202 % of control
- T/C (dose: 1.6 mg/kg/injection, schedule: Q01DX005 (iv), vehicle: other): 115 % of control and 120 % of control
- T/C (dose: 1.6 mg/kg/injection, schedule: Q04DX003 (iv), vehicle: other): 107 % of control
- T/C (dose: 2.0 mg/kg/injection, schedule: Q01DX009 (ip), vehicle: Klucel (hydroxypropylcellulose) (HPC)): 169 % of control
- T/C (dose: 2.0 mg/kg/injection, schedule: Q01DX009 (ip), vehicle: other): 193 % of control and 216 % of control
- T/C (dose: 3.3 mg/kg/injection, schedule: Q01DX005 (ip), vehicle: other): 220 % of control
- T/C (dose: 3.3 mg/kg/injection, schedule: Q04DX003 (iv), vehicle: other): 122 % of control
- T/C (dose: 3.6 mg/kg/injection, schedule: Q04DX003 (ip), vehicle: clinical formulation): 192 % of control
- T/C (dose: 3.6 mg/kg/injection, schedule: Q04DX003 (ip), vehicle: other): 215 % of control
- T/C (dose: 4.12 mg/kg/injection, schedule: Q01DX009 (ip), vehicle: Klucel (hydroxypropylcellulose) (HPC)): 227 % of control and 204 % of control
- T/C (dose: 5.4 mg/kg/injection, schedule: Q04DX003 (ip), vehicle: clinical formulation): 210 % of control
- T/C (dose: 6.0 mg/kg/injection, schedule: Q04DX003 (ip), vehicle: clinical formulation): 211 % of control
- T/C (dose: 6.0 mg/kg/injection, schedule: Q04DX003 (ip), vehicle: other): 169 % of control
- T/C (dose: 6.25 mg/kg/injection, schedule: Q01DX009 (ip), vehicle: Klucel (hydroxypropylcellulose) (HPC)): 236 % of control and 259 % of control and 272 % of control
- T/C (dose: 6.5 mg/kg/injection, schedule: Q04DX003 (iv), vehicle: other): 116 % of control
- T/C (dose: 6.6 mg/kg/injection, schedule: Q04DX003 (ip), vehicle: other): 236 % of control
- T/C (dose: 6.6 mg/kg/injection, schedule: Q08DX002 (ip), vehicle: other): 191 % of control
- T/C (dose: 6.6 mg/kg/injection, schedule: Q08DX002 (iv), vehicle: other): 118 % of control
- T/C (dose: 7.0 mg/kg/injection, schedule: Q04DX003 (ip), vehicle: lactic acid): 225 % of control and 263 % of control and 272 % of control
- T/C (dose: 7.0 mg/kg/injection, schedule: Q04DX003 (ip), vehicle: saline with Tween-80): 240 % of control
- T/C (dose: 9.0 mg/kg/injection, schedule: Q04DX003 (ip), vehicle: clinical formulation): 215 % of control
- T/C (dose: 9.37 mg/kg/injection, schedule: Q01DX009 (ip), vehicle: Klucel (hydroxypropylcellulose) (HPC)): 268 % of control and 104 % of control
- T/C (dose: 10.0 mg/kg/injection, schedule: Q04DX003 (ip), vehicle: clinical formulation): 248 % of control
- T/C (dose: 10.0 mg/kg/injection, schedule: Q04DX003 (ip), vehicle: other): 225 % of control and 272 % of control
- T/C (dose: 10.0 mg/kg/injection, schedule: Q08DX002 (ip), vehicle: other): 193 % of control
- T/C (dose: 11.0 mg/kg/injection, schedule: Q04DX003 (ip), vehicle: lactic acid): 291 % of control and 354 % of control and 541 % of control
- T/C (dose: 11.0 mg/kg/injection, schedule: Q04DX003 (ip), vehicle: saline with Tween-80): 295 % of control
- T/C (dose: 12.5 mg/kg/injection, schedule: Q01DX009 (ip), vehicle: Klucel (hydroxypropylcellulose) (HPC)): 260 % of control
- T/C (dose: 15.0 mg/kg/injection, schedule: Q04DX003 (ip), vehicle: other): 111 % of control
- T/C (dose: 15.0 mg/kg/injection, schedule: Q04DX003 (iv), vehicle: other): 157 % of control
- T/C (dose: 15.0 mg/kg/injection, schedule: Q08DX002 (ip), vehicle: other): 245 % of control
- T/C (dose: 16.0 mg/kg/injection, schedule: Q04DX003 (ip), vehicle: lactic acid): 190 % of control
- T/C (dose: 16.0 mg/kg/injection, schedule: Q04DX003 (ip), vehicle: saline with Tween-80): 377 % of control
- T/C (dose: 16.7 mg/kg/injection, schedule: Q04DX003 (ip), vehicle: clinical formulation): 118 % of control
- T/C (dose: 22.6 mg/kg/injection, schedule: Q04DX003 (iv), vehicle: other): 170 % of control
- T/C (dose: 22.6 mg/kg/injection, schedule: Q08DX002 (iv), vehicle: other): 190 % of control
- T/C (dose: 26.0 mg/kg/injection, schedule: Q04DX003 (iv), vehicle: other): 203 % of control
- T/C (dose: 34.0 mg/kg/injection, schedule: Q04DX003 (iv), vehicle: other): 200 % of control
- T/C (dose: 34.0 mg/kg/injection, schedule: Q08DX002 (iv), vehicle: other): 200 % of control

Reference: PubChem BioAssay AID328 (DTP/NCI, 2004)
